Experimental data as given in the supplement of paper PMC10290057.
Where a name gives a salt, the structure may show the parent alone.

Columns and labels:
[1] = test system: HCT116; experiment: efficacy (fitted maximal change in viability relative to DMSO control); higher = less cytotoxic (negative = loss of viability); details: 48 h
[2] = test system: HCT116; experiment: AC50 cell viability (CellTiter-Glo); higher = less potent; details: 48 h
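For AC50 cell viability (CellTiter-Glo) in this document: HCT116 colorectal carcinoma cells screened at five concentrations per compound, luminescent viability scaled between DMSO wells and empty wells on each plate, curves fitted per compound.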
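For efficacy (fitted maximal change in viability relative to DMSO control) in this document: Luminescence-based viability readout, five doses per compound, normalized against on-plate DMSO and empty-well controls, followed by dose-response curve fitting for every drug.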

Row | SMILES | efficacy [1] [%] | AC50 cell viability [2] [µM]
1 | Cc1cnc(Nc2ccc(N3CCN(C)CC3)cc2)nc1Nc1cccc([S+](=O)([O-])NC(C)(C)C)c1 | -89.5 | 1.86
2 | O=C(/C=C/c1cccc([S+](=O)([O-])Nc2ccccc2)c1)NO [Belinostat] | -87.7 | 0.525
3 | CNC(=O)c1ccc2c(c1)NC(=O)/C2=C(\Nc1cccc(CN(C)C)c1)c1ccccc1 | -93.1 | 18.6
4 | C[N]1C=NC=C1[C@@](N)(C2=CC=C(Cl)C=C2)C3=CC=C4N(C)C(=O)\C=C(\C5=CC=CC(=C5)Cl)C4=C3 [Tipifarnib] | -107 | 9.34
5 | CC[S+](=O)([O-])Nc1ccc2c(c1)/C(=C(/Nc1ccc(CN3CCCCC3)cc1)c1ccccc1)C(=O)N2 [Hesperadin] | -90.4 | 0.235
6 | Nc1ncnc2nc(-c3ccc(N4CCOCC4)nc3)cc(-c3cccc(Br)c3)c12 [ABT-702] | -53 | 20.9
7 | C[C@H]1Oc2cc(cnc2N)-c2c(nn(C)c2C#N)CN(C)C(=O)c2ccc(F)cc21 [Lorlatinib] | -33.7 | 0.372
8 | CCC[C@@H](C=O)NC(=O)[C@H](CC(C)C)NC(=O)[C@H](CC(C)C)NC(=O)OCc1ccccc1 [MG-115] | -93.3 | 0.661
9 | COC\1=C(/OC)C(=O)\C(=C(C)/C1=O)CCCCCCCCCCO [Idebenone] | -54.9 | 18.6
10 | COc1cc([C@@H]2c3cc4c(cc3[C@@H](O[C@@H]3O[C@@H]5CO[C@@H](C)O[C@H]5[C@H](O)[C@H]3O)[C@H]3COC(=O)[C@H]23)OCO4)cc(OC)c1O [Etoposide] | -41.9 | 2.95
11 | NC(=O)c1cccc2c(NC(CN3CCC3)c3ccc(Cl)c(C(F)(F)F)c3)ncnc12 (stereo not drawn) [M2698] | -116 | 10.5
12 | COc1ccc([S+](=O)([O-])N(C(C)=O)c2ccccc2/C=C/c2cc[n+]([O-])cc2)cc1 [IVX-214] | -59.1 | 4.17
13 | Cc1ccc(-c2ccc3c(ccc4sc5c(c43)NC[C@@H](C)NC5=O)n2)cn1 | -96.2 | 20.9
14 | CNC(=O)Cn1cc(-c2ccc3c(c2)C(F)CC32NC(=O)N(CC(=O)N(Cc3ccc(F)cc3)[C@@H](C)C(F)(F)F)C2=O)cn1 (stereo partly drawn) | -47.8 | 0.742
15 | C/C=C(\C)C(=O)N[C@@H](c1ccccc1)[C@@H](O)C(=O)O[C@H]1C[C@@]2(O)[C@@H](OC(=O)c3ccccc3)[C@@H]3[C@]4(OC(C)=O)CO[C@@H]4C[C@H](O)[C@@]3(C)C(=O)[C@H](OC(C)=O)C(=C1C)C2(C)C [Cephalomannine] | -63.5 | 0.0263
16 | CNc1nc(Nc2cnn([C@H]3CCN(C4COC4)C[C@@H]3F)c2Cl)ncc1C(F)(F)F [GNE-9605] | -51.4 | 4.68
17 | Cn1cc(-c2ccc([S+](=O)([O-])n3ccc(/C=C/C(=O)Nc4ccccc4N)c3)cc2)cn1 [4SC-202] | -76.5 | 1.48
18 | Cc1cc2c(C(N)=O)cccc2n1-c1nc2c(c(NCc3ccccc3)n1)COCC2 [CB-5083] | -88.7 | 0.833
19 | [O-][S+]1(=O)/N=C(/NC2=CC(=CC=C2)NC(=O)CCl)C3=CC=CC=C13 [NMS-859] | -85.1 | 26.3
20 | CC[C@H]1CN2CCc3cc(OC)c(OC)cc3[C@@H]2C[C@@H]1C[C@H]1NCCc2cc(OC)c(OC)cc21 [Emetine] | -73.6 | 0.0833

Row | SMILES | efficacy [1] [%] | AC50 cell viability [2] [µM]
21 | CN[S+](=O)([O-])c1ccc2c(c1)/C(=C/c1[nH]c3c(c1CCCN1CCN(C)CC1)CCCC3)C(=O)N2 [PRP01-012] | -103 | 14.8
22 | COC1=CC(=CC=C1)C2=CC=C(NC(=O)/C3=C(/CCC3)C(O)=O)C(=C2)F [Vidofludimus] | -50.2 | 5.25
23 | Nc1nc(F)nc2c1ncn2[C@@H]1O[C@H](COP(=O)(O)O)[C@@H](O)[C@@H]1O [Fludarabine phosphate] | -58.2 | 7.42
24 | C[C@@H](Nc1ncnc2[nH]c(-c3ccc(O)cc3)cc12)c1ccccc1 [PKI-166] | -84.7 | 14.8
25 | Oc1ccc(-c2ccc(-c3cc(Nc4cccc(CNC5CC5)c4)[nH]n3)cc2)c(O)c1 [TCS-2312] | -77.1 | 3.32
26 | C=C1C(=O)O[C@@H]2[C@H]3O[C@]3(C)CC/C=C(\C)CC[C@@H]12 [Parthenolide] | -97.4 | 13.2
27 | O=C(c1ccc(F)cc1)N1CCC[C@H](c2nc(-c3ccc(F)cc3)no2)C1 | -35.7 | 14.8
28 | NC(=O)c1ccccc1Nc1ccnc(Nc2cccc(O)c2)n1 | -95.9 | 5.9
29 | Nc1ccc(C(=O)Nc2cccc(-c3nc(N4CCOCC4)c4oc5ncccc5c4n3)c2)cn1 | -88.1 | 5.9
30 | CCCCNc1ncc2c(-c3ccc(CN4CCN(C)CC4)cc3)cn(C3CCC(O)CC3)c2n1 (stereo not drawn) [UNC-2025] | -74.3 | 1.66
31 | O=C1CCc2ccc(OCCCCN3CCN(c4cccc(Cl)c4Cl)CC3)cc2N1 [Aripiprazole] | -93.8 | 18.6
32 | NC(=O)C/1=C(O)/[C@]2(O)[C@@H](C[C@@H]\3CC4=C(C(=CC=C4)O)\C(=C3C2=O)O)CC1=O [Incyclinide] | -69.4 | 16.6
33 | OC(c1cc(C(F)(F)F)nc2c(C(F)(F)F)cccc12)C1CCCCN1 (stereo not drawn) [MEFLOQUINE] | -109 | 20.9
34 | CN(C)CCOc1ccc(/C(=C(/CCCl)c2ccccc2)c2ccccc2)cc1 [Toremifene citrate] | -99.7 | 20.9
35 | ClC1=C[NH]N=C1C\2NC(=N\C3=C2C(=O)CCC3)/NC4=NC5=CC=CC=C5O4 (stereo not drawn) | -63.3 | 18.6
36 | CN1C(=O)c2sccc2N(C)c2nc(Nc3ccc([S+](N)(=O)[O-])cc3)ncc21 [XMU-MP-1] | -99.2 | 3.32
37 | CCN1CCC(n2cc(CNc3cc(Cl)c4ncc(C#N)c(Nc5ccc(F)c(Cl)c5)c4c3)nn2)CC1 [Wyeth Cot Inhibitor 2] | -98.5 | 20.9
38 | O=C(NOCC1CC1)c1ccc(F)c(F)c1Nc1ccc(I)cc1Cl | -126 | 4.68
39 | C=CC(=O)Nc1cccc(Oc2nc(Nc3ccc(N4CCN(C)CC4)cc3)nc3ccsc23)c1 [Olmutinib] | -98.2 | 8.33
40 | COC1=CC=C2/C3=N/CCN3\C(=N/C2=C1OC)NC(=O)C4=CC=CN=C4 [PIK-90] | -37.1 | 0.263

Row | SMILES | efficacy [1] [%] | AC50 cell viability [2] [µM]
41 | CCCOc1ccc2[nH]c(NC(=O)OC)nc2c1 [Oxibendazole] | -64.9 | 0.295
42 | CCCCN(CCCC)CCC(O)c1cc2c(Cl)cc(Cl)cc2c2cc(C(F)(F)F)ccc12.Cl (stereo not drawn) [Halofantrine] | -66.6 | 20.9
43 | CCCCc1ccc2[nH]c(NC(=O)OC)nc2c1 [Parbendazole] | -63.1 | 0.105
44 | Cc1nc(NC(=O)N2CCC[C@H]2C(N)=O)sc1-c1csc(C(C)(C)C)n1 [A-66] | -33 | 1.86
45 | O=C(NC1CCNCC1)c1n[nH]cc1NC(=O)c1c(Cl)cccc1Cl [AT-7519] | -65.1 | 0.235
46 | O=C(CC12CC3CC(CC(C3)C1)C2)Nc1cccc2nc(NCCNCCO)ccc12 | -101 | 26.3
47 | COC(=O)Nc1ccc(-c2nc(N3CCOCC3)c3cnn(C4CCN(Cc5cccnc5)CC4)c3n2)cc1 [WYE-687] | -135 | 13.2
48 | CS[C@H]1SC[C@@H]2C(=O)N(C)[C@H](C(C)C)C(=O)OC[C@H](NC(=O)c3cnc4ccccc4n3)C(=O)N[C@H](C)C(=O)N(C)[C@H]1C(=O)N(C)[C@H](C(C)C)C(=O)OC[C@H](NC(=O)c1cnc3ccccc3n1)C(=O)N[C@H](C)C(=O)N2C [Echinomycin] | -72.6 | 0.00372
49 | CC(C)(O)CC(=O)NCCn1ccc2ncnc(Nc3ccc(Oc4cccc(C(F)(F)F)c4)c(Cl)c3)c21 [TAK-285] | -101 | 16.6
50 | NC\1=N\C(=O)N(\C=N1)[C@H]2C[C@H](O)[C@@H](CO)O2 [Decitabine] | -42.1 | 9.34
51 | Cc1cc(I)ccc1Nc1c(C(=O)NOCC2CC2)cc(F)c(F)c1F | -95.1 | 4.68
52 | CCNCc1nc2c(N)nc3ccccc3c2n1CC(C)(C)O [Gardiquimod] | -62 | 16.6
53 | O=C(CCCCCCC(=O)Nc1cccnc1)NO [Pyroxamide] | -87.9 | 2.95
54 | CCCCCN(CCC12CC3CC(CC(C3)C1)C2)C(=O)NCCCc1ccncc1 [DE-096] | -90.2 | 16.6
55 | NCCCCNCCCN [Spermidine] | -78.6 | 23.5
56 | COc1cc(F)ccc1-c1ncnc(Nc2cccc(C[S+](C)(=N)[O-])c2)n1 (stereo not drawn) [Atuveciclib] | -68 | 0.468
57 | O=C(C1CC1)N1CC[C@@H](Cn2c(-c3ccc(-c4ccc5occc5c4)cc3)nc3cnccc32)C1 | -66.1 | 23.5
58 | C[C@@]12OC(=O)[C@@]1(NC(=O)[C@@H]2CCCl)[C@@H](O)[C@H]\3CCC\C=C3 [Marizomib] | -92.6 | 0.118
59 | CC[C@@]1(O)C(=O)OCC/2=C1/C=C/3N(CC4=C(CCNC(C)C)C5=CC=CC=C5N=C34)C2=O [Belotecan] | -80.8 | 0.0166
